For one test, the target named is Recombinant human FGFR1 (Homo sapiens, UniProt P11362). Briefly: Transcreener Kinase Assay of FGFR1. Type of test: biochemical. Particulars: read-out: FGFR1 (FP) IC50.
The next test concerns the target Recombinant human FGFR2 (Homo sapiens, UniProt P21802). Briefly: Transcreener Kinase Assay of FGFR2. Type of test: biochemical. Particulars: read-out: FGFR2 (FP) IC50.
A further test concerns the target FGFR3 kinase (Homo sapiens, UniProt P22607). The test can be described thus: Z-Lyte Kinase Assay of FGFR3. The test is classed as biochemical. The gist of the method:
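Kinase at 0.7 μg/ml with 4 μM Z-LYTE Tyr 4 peptide and ATP diluted to 300 uM (working solution, 1.33× buffer); compounds 1–0.00046 μM, 2% DMSO final. Kinase reaction and development each 1 h at RT (25-30[…]); coumarin (445 nm) and fluorescein (520 nm) emission read, inhibition from % phosphorylation.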

In another test the test system is KG-1. Briefly: Cellular Proliferation Assay (Cell Counting Kit-8), KG-1. The test is classed as cell-based. The settings on record: Homo sapiens, KG1 cells, 72 hours. The gist of the method: (§1)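 Seeding was 30,000 (KG-1), 5,000 (SNU-16) or 1,000 (RT-112) cells per well, with compound added 24 h later. Dilutions were prepared as an 8-point series of 10 to 0.004 μM in 5% DMSO, before addition to wells.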

The subject of a further test is SNU-16. The test can be described thus: Cellular Proliferation Assay (Cell Counting Kit-8), SNU-16. Type of test: cell-based. The settings on record: Homo sapiens, SNU-16 cells, 72 hours. In a few lines:
as §1

A further test deals with RT-112. The test can be described thus: Cellular Proliferation Assay (Cell Counting Kit-8), RT-112. The settings on record: Homo sapiens, RT-112 cells, 72 hours. Type of test: cell-based. The protocol: Cellular Proliferation Assay
• KG-1 (ATCC Accession No. CCL-246), • SNU-16 (ATCC Accession No. CRL-5974), • RT-112 (ECACC Accession No. 85061106)
• FGFR related cancer cell proliferation is measured in 96-well plates using Cell Counting Kit-8 (Dojindo CK04-13). • Seed 30000 cells/well of KG1, 5000 cells/well of SNU16, and 1000 cells/well of RT112 in a volume of 100 μL/well in growth media. • After 24 hours, dilute the compound to 10, 3.3, 1.1, 0.37, 0.12, 0.04, 0.013, 0.004 μM, keeping the DMSO concentration at 5%. • Add 10 μL of 8-point compound series to the wells of culturing cells. • Incubate at 37° C. and 5% CO2 for 72 hours • Add 10 μL/well of CCkit8 and incubate at 37° C. and 5% CO2 for an hour • Detect the optical density of each well at 450 nm on Labsystems Multiskan K3.
• ODcompound well represents the optical density of cells treated with compound. • ODcell well represents the optical density of cells without compounds treatment. (only 0.5% DMSO) • ODcontrol well represents the optical density of culture media background
The concentration of compound providing 50% of proliferation inhibition was calculated using Excel Fit.

Chain of FGFR3 kinase (P22607 23-806): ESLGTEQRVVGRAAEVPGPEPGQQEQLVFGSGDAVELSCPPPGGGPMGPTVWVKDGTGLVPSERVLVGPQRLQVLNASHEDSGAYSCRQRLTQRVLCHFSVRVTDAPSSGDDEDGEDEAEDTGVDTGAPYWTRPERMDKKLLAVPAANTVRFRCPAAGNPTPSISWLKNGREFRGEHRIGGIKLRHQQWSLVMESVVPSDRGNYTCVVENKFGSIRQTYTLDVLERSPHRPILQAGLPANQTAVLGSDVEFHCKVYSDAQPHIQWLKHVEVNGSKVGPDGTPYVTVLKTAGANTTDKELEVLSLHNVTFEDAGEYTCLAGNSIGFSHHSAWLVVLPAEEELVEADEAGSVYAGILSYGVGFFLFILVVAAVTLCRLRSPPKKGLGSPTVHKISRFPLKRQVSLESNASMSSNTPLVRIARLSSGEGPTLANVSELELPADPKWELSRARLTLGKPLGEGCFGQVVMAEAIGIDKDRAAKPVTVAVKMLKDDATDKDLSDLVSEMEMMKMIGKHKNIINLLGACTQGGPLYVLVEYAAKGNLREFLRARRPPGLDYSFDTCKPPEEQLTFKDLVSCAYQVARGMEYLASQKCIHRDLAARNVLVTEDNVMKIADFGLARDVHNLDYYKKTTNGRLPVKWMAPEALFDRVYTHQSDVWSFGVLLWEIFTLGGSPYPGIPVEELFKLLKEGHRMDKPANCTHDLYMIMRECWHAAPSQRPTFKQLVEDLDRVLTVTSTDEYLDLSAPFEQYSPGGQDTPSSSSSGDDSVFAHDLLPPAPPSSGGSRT
Chain of Recombinant human FGFR2 (P21802 22-821): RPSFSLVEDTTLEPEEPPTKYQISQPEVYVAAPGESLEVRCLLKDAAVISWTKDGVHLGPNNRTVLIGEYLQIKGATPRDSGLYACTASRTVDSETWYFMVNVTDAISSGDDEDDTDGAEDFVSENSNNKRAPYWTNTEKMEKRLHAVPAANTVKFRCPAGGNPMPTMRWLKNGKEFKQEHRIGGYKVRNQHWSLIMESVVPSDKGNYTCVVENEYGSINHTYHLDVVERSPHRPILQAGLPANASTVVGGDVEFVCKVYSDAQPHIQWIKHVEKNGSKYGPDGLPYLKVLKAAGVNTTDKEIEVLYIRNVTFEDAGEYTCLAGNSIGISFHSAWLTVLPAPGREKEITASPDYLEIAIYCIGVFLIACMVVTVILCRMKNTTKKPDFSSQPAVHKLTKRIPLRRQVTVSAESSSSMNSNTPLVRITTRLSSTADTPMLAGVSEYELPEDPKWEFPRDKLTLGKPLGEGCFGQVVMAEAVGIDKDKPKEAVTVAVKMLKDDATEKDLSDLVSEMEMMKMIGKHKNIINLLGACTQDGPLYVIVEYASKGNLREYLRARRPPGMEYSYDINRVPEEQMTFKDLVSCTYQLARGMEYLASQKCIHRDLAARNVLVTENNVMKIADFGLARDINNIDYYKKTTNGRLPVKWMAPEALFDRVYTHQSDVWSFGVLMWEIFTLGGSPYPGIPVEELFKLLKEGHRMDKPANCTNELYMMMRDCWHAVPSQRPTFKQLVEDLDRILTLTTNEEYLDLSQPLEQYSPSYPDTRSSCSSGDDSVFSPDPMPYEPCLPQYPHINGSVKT
Chain of Recombinant human FGFR1 (P11362 22-822): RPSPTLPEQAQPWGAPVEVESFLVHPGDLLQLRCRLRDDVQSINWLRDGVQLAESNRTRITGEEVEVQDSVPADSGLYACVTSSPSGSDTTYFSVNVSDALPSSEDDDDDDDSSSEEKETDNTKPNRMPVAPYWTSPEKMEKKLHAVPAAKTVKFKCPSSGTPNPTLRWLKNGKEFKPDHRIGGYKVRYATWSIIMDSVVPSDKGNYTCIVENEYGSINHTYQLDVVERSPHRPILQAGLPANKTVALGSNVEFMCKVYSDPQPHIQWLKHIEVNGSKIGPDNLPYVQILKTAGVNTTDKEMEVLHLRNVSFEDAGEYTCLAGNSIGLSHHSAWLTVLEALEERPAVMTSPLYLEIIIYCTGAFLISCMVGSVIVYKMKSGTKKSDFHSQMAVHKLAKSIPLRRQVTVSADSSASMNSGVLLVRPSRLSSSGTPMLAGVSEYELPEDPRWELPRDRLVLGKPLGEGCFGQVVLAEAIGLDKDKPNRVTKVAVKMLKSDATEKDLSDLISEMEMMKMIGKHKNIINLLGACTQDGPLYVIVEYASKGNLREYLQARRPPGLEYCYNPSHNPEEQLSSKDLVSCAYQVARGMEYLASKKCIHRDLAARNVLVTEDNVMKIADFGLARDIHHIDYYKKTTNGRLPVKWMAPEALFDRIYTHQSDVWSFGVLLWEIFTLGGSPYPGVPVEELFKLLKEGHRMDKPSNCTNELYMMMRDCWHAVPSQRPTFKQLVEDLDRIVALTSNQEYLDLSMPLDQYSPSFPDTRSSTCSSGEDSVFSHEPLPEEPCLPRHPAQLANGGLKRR

Turning to `CNC(=O)c1cc(CCc2cnc(Nc3cnn(CCN4CCN(C)CC4)c3)nc2)c(Cl)c(OC)c1` [Compound 89], the IC50 at Recombinant human FGFR1 amounted to 12 nM; on Recombinant human FGFR2, 8 nM; against FGFR3 kinase it was 8 nM; in the test on KG-1, 130 nM; in the test with SNU-16, 29 nM; in the test on RT-112 it was 46 nM.

For `CCn1cc(Nc2ncc(/C=C/c3c(F)c(C(=O)NC)cc(OC)c3Cl)cn2)cn1` [Compound 2], the concentration for half-maximal inhibition (IC50) at Recombinant human FGFR1 was 17 nM; at Recombinant human FGFR2 it was 10 nM; at FGFR3 kinase, 17 nM; in the test with KG-1, 17 nM; in the test on SNU-16, 31 nM; with RT-112, 19 nM.

Regarding `CNC(=O)c1cc(CCc2cnc(Nc3cn[nH]c3)nc2)c(F)c(OC)c1` [Compound 102], the concentration for half-maximal inhibition (IC50) on Recombinant human FGFR1 stood at 12 nM; at Recombinant human FGFR2, 7 nM; against FGFR3 kinase, 18 nM; in the test with KG-1, 33 nM; with SNU-16, 55 nM; in the test with RT-112, 461 nM.

Regarding `CNC(=O)c1cc(COc2cnc(Nc3ccc(N4CCNCC4)cc3)nc2)c(F)c(OC)c1` [Compound 188], the 50% inhibitory concentration (IC50) at Recombinant human FGFR1 was 8 nM; at Recombinant human FGFR2, 5 nM; on FGFR3 kinase it was 10 nM; in the test on KG-1 it was 20 nM; in the test with SNU-16, 6 nM; with RT-112, 12 nM.

Consider `CNC(=O)c1cc(CCc2cnc(Nc3cnn(CCN4CCCC4)c3)nc2)c(F)c(OC)c1` [Compound 135], for which the IC50 came out at 22 nM at Recombinant human FGFR1; 19 nM on Recombinant human FGFR2; 22 nM on FGFR3 kinase; 368 nM in the test with KG-1; 46 nM in the test on SNU-16; 230 nM in the test with RT-112.

On to `CCn1cc(Nc2ncc(OCc3cc(C(=O)NC)cc(OC)c3F)cn2)cn1` [Compound 181, 3-(((2-((1-ethyl-1H-pyrazol-4-yl)amino)pyrimidin-5-yl)oxy)methyl)-4-fluoro-5-methoxy-N-methylbenzamide], for which the IC50 on Recombinant human FGFR1 turned out to be 19 nM; on Recombinant human FGFR2, 5 nM; on FGFR3 kinase it was 9 nM; in the test on KG-1 it was 26 nM; in the test on SNU-16, 8 nM; in the test on RT-112, 35 nM.

Regarding `CCN1CCC(Cn2cc(Nc3ncc(CCc4cc(C(=O)NC)cc(OC)c4Cl)cn3)cn2)CC1` [Compound 155], the IC50 at Recombinant human FGFR1 was determined as 10 nM; on Recombinant human FGFR2, 4 nM; against FGFR3 kinase it was 4 nM; in the test with KG-1, 461 nM; in the test with SNU-16 it was 18 nM; in the test with RT-112, 12 nM.

As for `CNC(=O)c1cc(CCc2cnc(Nc3cnn(C[C@@H](C)O)c3)nc2)c(Cl)c(OC)c1` [Compound 150], the half-maximal inhibitory concentration (IC50) on Recombinant human FGFR1 is 15 nM; at Recombinant human FGFR2, 6 nM; against FGFR3 kinase, 6 nM; with KG-1 it was 31 nM; with SNU-16 it was 33 nM; with RT-112, 62 nM.

Regarding `CCN1CCC(n2cc(Nc3ncc(CCc4cc(C(=O)NC)cc(OC)c4F)cn3)cn2)CC1` [Compound 176], the IC50 on Recombinant human FGFR1 was determined as 7 nM; at Recombinant human FGFR2, 7 nM; against FGFR3 kinase, 8 nM; in the test on KG-1, 66 nM; in the test with SNU-16, 17 nM; in the test on RT-112, 100 nM.

For the molecule `CNC(=O)c1cc(CCc2cnc(Nc3cnn(C(C)C)c3)nc2)c(Cl)c(OC)c1` [Compound 121], the half-inhibitory concentration (IC50) at Recombinant human FGFR1 came to 9 nM; on Recombinant human FGFR2, 6 nM; at FGFR3 kinase it was 15 nM; in the test with KG-1 it was 7 nM; in the test on SNU-16, 18 nM; in the test on RT-112 it was 65 nM.

Regarding `CNC(=O)c1cc(CCc2cnc(Nc3cnn(C(F)F)c3)nc2)c(Cl)c(OC)c1` [Compound 149], the half-inhibitory concentration (IC50) at Recombinant human FGFR1 came out at 15 nM; at Recombinant human FGFR2, 8 nM; against FGFR3 kinase, 33 nM; with KG-1, 67 nM; in the test with SNU-16, 17 nM; with RT-112, 21 nM.

Values taken from patent US20160052926A1, “NOVEL PYRIMIDINE AND PYRIDINE COMPOUNDS AND USAGE THEREOF” (HUTCHISON MEDIPHARMA LIMITED, priority 2013, published 2016).
